Experimental data as given in patent US7892767B2, “Phosphospecific chemokine receptor antibodies” (Washington University in St. Louis, priority 2005, dated 2011).

What was measured:
U87 glioblastoma cells = assay: Viable cell number by trypan blue exclusion, U87 cells; format: cell-based, human; conditions: CXCL12 1 μg/ml
Protocol: (§1) Brain tumor cell cultures. Cells were cultured in αMEM (Invitrogen, Carlsbad, Calif.) supplemented with 10% FCS (Biomedia, Foster City, Calif.) in the presence of penicillin streptomycin at 37° C. with 5% CO2.
(§2) Growth factor and drug treatment. Following serum-starvation for 24 hours, astrocytes, granule cells, U87 cells and Daoy cells, were treated with 1 μg/ml CXCL12 (PeproTech), […] AMD3465 (kind gift from Simon Fricker, AnorMED, Langley, BC, Canada) (200 μM Rolipram (Sigma), or 10 μM Forskolin (Sigma) as indicated.

[1] = tested on: cerebellar granule precursor cells (GPCs); assay: Intracellular cAMP by ELISA, primary cerebellar granule precursor cells; format: cell-based, mouse; conditions: 1 μg/ml CXCL12
Protocol: Primary granule neuron cultures. Primary cultures of purified GPCs were prepared from 6 day-old BALB/C mice as described (58). Cerebella were dissected and meninges were removed. After incubation with 0.1% trypsin (Sigma) in HBSS with 125 units/ml Dnase (Sigma), 0.5 mM EDTA for 20 minutes at 37° C., cells were pelleted and washed three times with HBSS. The final cell suspension was passed through a […] nylon mesh cell strainer (Falcon, Franklin Lakes, Mich.). Cells were diluted to 2×10^6 cells/ml in DMEM/F12 (Gibco BRL, Gaithersburg, Md.) supplemented with N2 (Gibco BRL), 20 mM KCl, and 36 mM glucose.
as §2
(§3) Determination of cAMP concentration. Competitive immunoassay for cAMP concentration was performed exactly as directed by the manufacturer. Absorbance at 405 nm was measured and cAMP concentrations were determined by calculation based on a standard curve. Protein concentrations were measured by colormetric assay (Bio-Rad, Hercules, Calif.) according to the manufacturer's directions. cAMP values were normalized to protein for each sample individually.

[2] = tested on: Daoy medulloblastoma cells; assay: Viable cell number by trypan blue exclusion, Daoy cells; format: cell-based, human; conditions: CXCL12 1 μg/ml
Protocol: as §1, §2

cortical astrocytes = assay: Intracellular cAMP by ELISA, primary cortical astrocytes; format: cell-based, mouse; conditions: 1 μg/ml CXCL12
Protocol: Primary astrocyte cultures. Primary astrocytes were cultured from 1 to 3-day-old BALB/C mice as described (57). The cortices were triturated into single cells in minimal essential medium (Invitrogen) containing 10% FCS, and then plated onto 75 cm^2 T-flasks (0.5 hemisphere/flask) for 10-14 days. Astrocytes were prepared by vigorous shaking of T-flasks overnight, removal of non-adherent cells, and isolation of the remaining adherent cells, with 0.1% trypsin.
as §2, §3

CXCL12: chemokine ligand of CXCR4 (Peprotech)
increase in cell number (U87 glioblastoma cells): greater than 2 fold
increase in cell number (U87 glioblastoma cells; serum-free): greater than 200%
change in cAMP levels [1]: little to no change
increase in cell number [2]: greater than 2 fold
increase in cell number ([2]; serum-free): greater than 200%
cAMP, lower level of fluctuation (cortical astrocytes): 40 % of baseline
